A value given as a limit tells only on which side of the number the result lay.

We go through twelve compounds from ChEMBL document CHEMBL5241104, “Reactive metabolites of the anticonvulsant drugs and approaches to minimize the adverse drug reaction” (Eur J Med Chem, 2021).

A short description of data set [1]: Toxicity in CF-1 mouse assessed as median toxic dose at ip administrated upto 4 hrs. The note with it: in vivo. The class given is organism-based.
The nature of data set [2]: Protective index, ratio of TD50 for toxicity in CF-1 mouse assessed as median toxicity dose at ip administration upto 4 hrs by rotorod test to ED50 for anticonvulsant activity in CF-1 mouse assessed as protection against maximal electroshock induced seizure at ip administration upto 4 hrs. It counts as organism-based. The note with it: in vivo, read-out: Ratio TD50/ED50. (In general: The rotarod test checks motor coordination on a turning rod.)

Data set [3] has as its system Mus musculus. Briefly: Anticonvulsant activity in Albino Swiss CD-1 mouse assessed as protection against maximal electroshock induced seizure at 100 mg/kg,ip administration. It counts as functional.
Data set [4] relates to Mus musculus. Briefly: Anticonvulsant activity in Albino Swiss CD-1 mouse assessed as protection against Sc-Met induced seizure at 100 mg/kg,ip administration. The class given is functional.
Data set [5] relates to Mus musculus. Nature of the data set: Anticonvulsant activity in mouse assessed as protection against Sc-pTZ induced seizure at ip administration for 5 mins. It counts as functional.
Data set [6] is described as follows: Protective index, ratio of TD50 for toxicity in CD-1 mouse assessed as median toxicity dose at ip administration by rotorod test to ED50 for anticonvulsant activity in CD-1 mouse assessed as protection against Sc-PTZ induced seizure at ip administration. It counts as organism-based. The note with it: in vivo, read-out: Ratio TD50/ED50.
Data set [7] relates to Mus musculus. Briefly: Anticonvulsant activity in CD-1 mouse assessed as protection against maximal electroshock induced seizure at ip administrated for 2 hrs. The class given is functional. A general note: Protection in the maximal electroshock model is a classic sign of anticonvulsant action.
The subject of data set [8] is Mus musculus. Nature of the data set: Anticonvulsant activity in CD-1 mouse assessed as protection against Sc-PTZ induced seizure at ip administrated for 2 hrs. It counts as functional.
The nature of data set [9]: Protective index, ratio of TD50 for toxicity in CD-1 mouse assessed as median toxicity dose at ip administration by rotorod test to ED50 for anticonvulsant activity in CD-1 mouse assessed as protection against maximal electroshock induced seizure at ip administration. The class given is organism-based. The note with it: in vivo, read-out: Ratio TD50/ED50.
The nature of data set [10]: Neurotoxicity in CD-1 mouse assessed as reduction in locomotor activity at 600 mg/kg,po administrated for 30 mins. It counts as toxicity, organism-based. Set-up: scale not given: the % may be the effect or the level left. The note with it: in vivo, 0.5 h.
Data set [11] concerns Mus musculus. Nature of the data set: Anticonvulsant activity in CD-1 mouse assessed as recovery time against maximal electroshock induced seizure at 150 mg/kg,po administrated for 30 mins. It counts as functional. The note with it: 0.5 h.
Data set [12] deals with Mus musculus. Briefly: Anticonvulsant activity in CD-1 mouse assessed as protection against PTZ induced seizure at po administration for 30 mins. The class given is functional. The note with it: CD-1, 0.5 h.
For data set [13], the system named is Mus musculus. Nature of the data set: Anticonvulsant activity in CD-1 mouse assessed as recovery time against maximal electroshock induced seizure at 600 mg/kg,po administrated for 30 mins. It counts as functional. The note with it: 0.5 h.
For data set [14], the system named is Mus musculus. Briefly: Anticonvulsant activity in CD-1 mouse assessed as protection against maximal electroshock induced seizure at po administration for 30 mins. It counts as functional. The note with it: CD-1, 0.5 h.
A short description of data set [15]: Neurotoxicity in CD-1 mouse assessed as reduction in locomotor activity at 300 mg/kg,po administrated for 30 mins. The class given is toxicity, organism-based. More on the design: scale not given: the % may be the effect or the level left. The note with it: in vivo, 0.5 h.
Data set [16] concerns Mus musculus. Briefly: Anticonvulsant activity in CD-1 mouse assessed as recovery time against maximal electroshock induced seizure at 300 mg/kg,po administrated for 30 mins. It counts as functional. The note with it: 0.5 h.
The nature of data set [17]: Neurotoxicity in CD-1 mouse assessed as lethal dose at po administration for 30 mins. It counts as toxicity, organism-based. The note with it: in vivo.
The test system of data set [18] is Mus musculus. Nature of the data set: Anticonvulsant activity in CD-1 mouse assessed as protection against 6-Hz Psychomotor induced seizure at ip administration. It counts as functional.
Data set [19] relates to Mus musculus. Nature of the data set: Anticonvulsant activity in CD-1 mouse assessed as protection against Sc-Met induced seizure at ip administrated for 30 mins. It counts as functional. The note with it: CD-1, 0.5 h.
The nature of data set [20]: Toxicity in CD-1 mouse assessed as median toxicity dose at ip administration for 30 mins by rotorod test. The note with it: in vivo. It counts as organism-based.
Data set [21] has as its system Mus musculus. Nature of the data set: Anticonvulsant activity in CD-1 mouse assessed as protection against maximal electroshock induced seizure at ip administrated for 30 mins. The note with it: CD-1, 0.5 h. The class given is functional.
Data set [22] deals with Rattus norvegicus. Nature of the data set: Anticonvulsant activity in rat brain assessed as increase in GABA level at 100 mg/kg,ip administrated for 2 hrs by spectrophotometric method. The class given is functional.
Data set [23] can be described thus: Hepatotoxicity in rat assessed as total protein level at 100 mg/kg,ip administrated for 2 hrs by spectrophotometric method. The class given is toxicity, organism-based. The note with it: in vivo.
Data set [24] in a line: Hepatotoxicity in rat assessed as total albumin level at 100 mg/kg,ip administrated for 2 hrs by spectrophotometric method. The class given is toxicity, organism-based. The note with it: in vivo.
The subject of data set [25] is Rattus norvegicus. Briefly: Anticonvulsant activity in Wistar rat assessed as protection against maximal electroshock induced seizure at po administration for 8 hrs. The class given is functional.
A short description of data set [26]: Displacement of 3[H]BTX from rat brain membrane voltage-sensitive sodium channel incubated for 1.5 hrs by scintillation counting analysis. It counts as cell membranes.
Data set [27] is described as follows: Protective index, ratio of TD50 for toxicity in Wistar rat assessed as median toxicity dose at po administration for 8 hrs by rotorod test to ED50 for anticonvulsant activity in Wistar rat assessed as protection against maximal electroshock induced seizure at po administration for 8 hrs. It counts as organism-based. The note with it: in vivo, read-out: Ratio TD50/ED50.

Data set [28] in a line: Protective index, ratio of TD50 for toxicity in Wistar rat assessed as median toxicity dose at po administration for 4 hrs by rotorod test to ED50 for anticonvulsant activity in Wistar rat assessed as protection against maximal electroshock induced seizure at po administration for 4 hrs. The class given is organism-based. The note with it: in vivo, read-out: Ratio TD50/ED50.

Data set [29] has as its system Rattus norvegicus. Briefly: Anticonvulsant activity in Wistar rat assessed as protection against maximal electroshock induced seizure at po administration for 2 hrs. It counts as functional.
A short description of data set [30]: Protective index, ratio of TD50 for toxicity in Wistar rat assessed as median toxicity dose at po administration for 2 hrs by rotorod test to ED50 for anticonvulsant activity in Wistar rat assessed as protection against maximal electroshock induced seizure at po administration for 2 hrs. The note with it: in vivo, read-out: Ratio TD50/ED50. The class given is organism-based.

For data set [31], the system named is Rattus norvegicus. Nature of the data set: Anticonvulsant activity in Wistar rat assessed as protection against maximal electroshock induced seizure at po administration for 4 hrs. The class given is functional.
Data set [32] relates to Mus musculus. Briefly: Anticonvulsant activity in mouse assessed as protection against maximal electroshock induced seizure at ip administration for 120 mins. It counts as functional. The note with it: 2 h.
Data set [33] deals with Mus musculus. Briefly: Anticonvulsant activity in mouse assessed as inhibition of maximal electroshock induced seizure at 200 mg/kg,po administration for 120 mins. It counts as functional. The note with it: 2 h.
Data set [34] relates to Mus musculus. Nature of the data set: Anticonvulsant activity in Albino mouse assessed as protection against Sc-metrazol induced seizure at ip administration. It counts as functional.
The test system of data set [35] is Rattus norvegicus. Briefly: Anticonvulsant activity in Sprague-Dawley rat assessed as protection against Sc-metrazol induced seizure at po administration. It counts as functional.
Data set [36] is described as follows: Neurotoxicity in Sprague-Dawley rat assessed as median toxic dose at ip administration. The class given is toxicity, organism-based. The note with it: in vivo.
Data set [37] concerns Mus musculus. Nature of the data set: Anticonvulsant activity in Albino mouse assessed as protection against 6-Hz psychomotor induced seizure at ip administration. It counts as functional.
In data set [38] the test system is Rattus norvegicus. Nature of the data set: Anticonvulsant activity in Sprague-Dawley rat assessed as protection against pilocarpine induced epilepticus at po administration. It counts as functional.
Data set [39] deals with Mus musculus. Briefly: Anticonvulsant activity in Albino mouse assessed as protection against maximal electroshock induced seizure at ip administration. The class given is functional.
A short description of data set [40]: Protective index, ratio of TD50 for toxicity in Sprague-Dawley rat at po administration to ED50 for anticonvulsant activity in Sprague-Dawley rat assessed as protection against pilocarpine induced epilepticus at po administration. The note with it: in vivo, read-out: Ratio TD50/ED50. The class given is organism-based.

Broadly, the TD50 is the dose at which the toxic effect under study appears in half of the subjects. Take `COC(=O)C1C(=O)C=C(Nc2cc(C)on2)CC1C` (stereo unspecified): the TD50 at 4 h in [1] is > 500 mg/kg. Further, the selectivity ratio at 4 h in [2] is > 7.3.
As for `Cl.Cl.O=C1CC(c2ccccc2)(c2ccccc2)CN1CN1CCN(c2ccccc2)CC1`, the Activity in data set [3] and in data set [4] was 25% throughout.
Consider `CC(C)(C)NC(=O)C(c1cccc(Br)c1)N1Cc2cnnn2-c2cc(Cl)ccc2C1=O` (stereo unspecified), for which the Activity in [5] was 56.94%.
The ED50 is the dose that gives a 50% effect, or the effect in half of the subjects. With `CC1(c2ccccc2)CC(=O)N(CCC(=O)N2CCN(c3ccccc3F)CC2)C1=O` (stereo unspecified), the selectivity ratio in data set [6] was > 2.63; in [9] it was > 3.83. Besides, the ED50 stood at 78.3 mg/kg in data set [7] and 114 mg/kg in [8].
Broadly, the LD50 is the dose at which mortality reaches 50%. As to `CCCC(CCC)C(=O)Nc1ccccc1O`, the Activity came to 2.78% in [10] and 60% in data set [15]. For the same compound, the results for the Time in data set [11], in data set [13] and in data set [16] were 93.26 s, 5.75 s and 30.66 s, respectively. The values for the 50% effective dose (ED50) in data set [12] and in data set [14] were 348 mg/kg and 370 mg/kg, respectively. For the same compound, in data set [17], the 50% lethal dose (LD50) at 0.5 h amounted to 937 mg/kg.
`CCC1(C)CC(=O)NC1=O` (stereo unspecified) [ETHOSUXIMIDE]: the ED50 in data set [18] is 222 mg/kg.
With `Cc1cccc(C)c1NC(=O)c1cc(CO)on1`, the results for the ED50 in data set [19] and in data set [21] were > 30 mg/kg and 8.7 mg/kg, respectively. For the same compound, the TD50 at 0.5 h in [20] came to 28.5 mg/kg.
With `Nc1ccc(Cl)cc1-c1n[nH]c(=O)n(-c2ccc(O)cc2)c1=O`, the figures for the Activity in data set [22], in data set [23] and in [24] were 87.4 mg, 4.78 g/dL and 1.61 g/dL, respectively.
The IC50 is the point on the concentration scale where inhibition reaches its midpoint. On to `NC(=O)N1c2ccccc2C/C(=N/O)c2ccccc21`, for which the ED50 in data set [25] was determined as 17 mg/kg; in data set [29] it was 12 mg/kg; in data set [31], 20 mg/kg. The IC50 in data set [26] is 418 µM. Also, in [27], the selectivity ratio at 8 h is > 117. In addition, in [28], the selectivity ratio at 4 h was > 100. For the same compound, in data set [30], the selectivity ratio at 2 h was > 166.
What is called inhibition in vivo is how much of the control response was suppressed. For `CC1(C)OCC(CO[S+](N)[O-])O1` (stereo unspecified), the median effective dose (ED50) in data set [32] was determined as 105 mg/kg. Besides, the inhibition in vivo at 200 mg/kg in data set [33] was ≥ 80%.
Regarding `CCCC(CCC)C(=O)O` [VALPROIC ACID], in data set [18], the median effective dose (ED50) was determined as 131 mg/kg.
As to `CCCC(CC)C(=O)NOC` (stereo unspecified), the ED50 in [34] was 70 mg/kg; in data set [35] it was 36 mg/kg; in data set [37], 50 mg/kg; in data set [38], 200 mg/kg; in data set [39] it was 142 mg/kg. In addition, the TD50 in data set [36] came to 118 mg/kg. The selectivity ratio in data set [40] was > 5.5.
